Holding throughout (conditions): pH 8
One assay addresses Acetylcholinesterase (Electrophorus electricus, UniProt O42275). Briefly: AChE and BChE Inhibition Assay. On the procedure:
(§1) In vitro AChEI activity was performed based on the modified Ellman's methodas previously reported by our group using a 96-well plate reader (BioTek ELx808). […] Each well contained 50 uL potassium phosphate buffer (KH2PO4/K2HPO4, 0.1 M, pH 8), 25 uL prepared sample as described above, 25 uL enzyme with final concentration of 0.22 U/mL in buffer. They were preincubated for 15 min at rt, and then 125 uL DTNB (3 mM in buffer) was added. […] The IC50 values were determined graphically from inhibition curves (log inhibitor concentration vs. percent of inhibition).

Assay [1] deals with Carboxylic ester hydrolase (Equus caballus, UniProt Q9N1N9). Briefly: AChE and BChE Inhibition Assay. On the procedure:
as §1

Assay [2] can be described thus: AChE and BChE Inhibition Assay.

The structures appear in SMILES notation. A value given as a limit tells only on which side of the number the result lay.

Acetylcholinesterase, sequence (O42275 whole entry): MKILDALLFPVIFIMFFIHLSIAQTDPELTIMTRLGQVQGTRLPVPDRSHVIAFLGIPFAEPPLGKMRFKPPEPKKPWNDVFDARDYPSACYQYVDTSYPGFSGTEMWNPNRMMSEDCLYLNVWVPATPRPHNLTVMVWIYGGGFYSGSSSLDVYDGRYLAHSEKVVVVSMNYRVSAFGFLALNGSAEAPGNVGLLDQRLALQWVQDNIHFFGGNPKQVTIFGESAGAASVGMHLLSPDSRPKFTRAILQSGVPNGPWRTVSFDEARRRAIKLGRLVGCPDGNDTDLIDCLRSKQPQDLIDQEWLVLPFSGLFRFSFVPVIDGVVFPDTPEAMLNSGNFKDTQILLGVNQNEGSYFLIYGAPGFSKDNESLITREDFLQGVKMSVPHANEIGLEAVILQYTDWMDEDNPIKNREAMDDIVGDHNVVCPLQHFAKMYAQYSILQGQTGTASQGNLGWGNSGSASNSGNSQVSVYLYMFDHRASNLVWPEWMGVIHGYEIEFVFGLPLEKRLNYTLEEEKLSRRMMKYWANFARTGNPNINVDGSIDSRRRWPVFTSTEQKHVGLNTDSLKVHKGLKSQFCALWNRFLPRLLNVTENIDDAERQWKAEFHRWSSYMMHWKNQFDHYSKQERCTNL
Carboxylic ester hydrolase, sequence (Q9N1N9 whole entry): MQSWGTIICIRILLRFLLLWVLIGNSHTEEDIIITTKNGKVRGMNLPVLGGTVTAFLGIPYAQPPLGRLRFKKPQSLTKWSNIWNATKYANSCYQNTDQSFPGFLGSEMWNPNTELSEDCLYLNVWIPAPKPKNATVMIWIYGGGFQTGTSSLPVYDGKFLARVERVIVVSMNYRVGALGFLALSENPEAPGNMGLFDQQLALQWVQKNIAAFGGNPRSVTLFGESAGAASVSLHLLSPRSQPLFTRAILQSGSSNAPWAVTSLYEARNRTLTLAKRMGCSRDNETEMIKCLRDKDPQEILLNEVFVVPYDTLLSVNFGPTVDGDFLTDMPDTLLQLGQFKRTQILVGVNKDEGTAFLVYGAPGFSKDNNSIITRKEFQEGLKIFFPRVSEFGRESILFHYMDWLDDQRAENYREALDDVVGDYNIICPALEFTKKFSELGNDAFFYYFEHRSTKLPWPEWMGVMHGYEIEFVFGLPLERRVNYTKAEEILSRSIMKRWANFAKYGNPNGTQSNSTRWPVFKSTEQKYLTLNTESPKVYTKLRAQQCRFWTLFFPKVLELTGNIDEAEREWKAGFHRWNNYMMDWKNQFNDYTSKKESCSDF

One may read the IC50 as the point on the concentration scale where inhibition reaches its midpoint. Low readings indicate inhibition by little substance, high ones a need for much substance. On to `Cc1cc(=O)oc2cc(Oc3ccc(Nc4c5c(nc6ccccc46)CCCC5)cc3)ccc12` [4-Methyl-7-(4-((1,2,3,4-tetrahydroacridin-9-yl)amino)phenoxy)-2H-chromen-2-one (8j)], for which the IC50 on Acetylcholinesterase is 22.1 µM; in assay [1] it was 38.6 µM.

As for `Cc1cc(=O)oc2cc(Oc3ccc(Nc4c5c(nc6ccccc46)CCCCC5)cc3)ccc12` [4-Methyl-7-(4-((7,8,9,10-tetrahydro-6H-cyclohepta[b]quinolin-11-yl)amino)phenoxy)-2H-chromen-2-one (8o)], the IC50 against Acetylcholinesterase was 64.4 µM; in assay [1], more than 100 µM.

As to `Cc1cc(=O)oc2cc(Oc3ccc(Nc4c5c(nc6ccc(Cl)cc46)CCCCC5)cc3)ccc12` [7-(4-(2-Chloro-7,8,9,10-tetrahydro-6H-cyclohepta[b]quinolin-11-ylamino)phenoxy)-4-methyl-2H-chromen-2-one (8q)], the IC50 at Acetylcholinesterase was 54.1 µM; in assay [1] it was more than 100 µM.

For `O=c1ccc2ccc(Oc3ccc(Nc4c5c(nc6ccccc46)CCCC5)cc3)cc2o1` [7-(4-((1,2,3,4-Tetrahydroacridin-9-yl)amino)phenoxy)-2H-chromen-2-one (8g)], the IC50 on Acetylcholinesterase amounted to 19.1 µM; in assay [1] it was 28.7 µM.

Consider `O=c1ccc2ccc(Oc3ccc(Nc4c5c(nc6ccccc46)CCC5)cc3)cc2o1` [7-(4-((2,3-Dihydro-1H-cyclopenta[b]quinolin-9-yl)amino)phenoxy)-2H-chromen-2-one (8a)], for which the figures for the IC50 (on Acetylcholinesterase; in assay [1]) were 83.1 µM and more than 100 µM, respectively.

Consider `Cc1cc(=O)oc2cc(Oc3ccc(Nc4c5c(nc6ccccc46)CCC5)cc3)ccc12` [7-(4-((2,3-Dihydro-1H-cyclopenta[b]quinolin-9-yl)amino)phenoxy)-4-methyl-2H-chromen-2-one (8d)], for which the values for the IC50 (against Acetylcholinesterase; in assay [1]) were 45.3 µM and more than 100 µM, respectively.

Consider `O=c1ccc2ccc(Oc3ccc(Nc4c5c(nc6cc(Cl)ccc46)CCCCC5)cc3)cc2o1` [7-(4-((3-Chloro-7,8,9,10-tetrahydro-6H-cyclohepta[b]quinolin-11-yl)amino)phenoxy)-2H-chromen-2-one (8n)], for which the IC50 (against Acetylcholinesterase; in assay [1]) was more than 100 µM throughout.

On to `Cc1cc(=O)oc2cc(Oc3ccc(Nc4c5c(nc6cc(Cl)ccc46)CCCCC5)cc3)ccc12` [7-(4-((3-Chloro-7,8,9,10-tetrahydro-6H-cyclohepta[b]quinolin-11-yl)amino)phenoxy)-4-methyl-2H-chromen-2-one (8p)], for which the IC50 against Acetylcholinesterase was 31.8 µM; in assay [1], more than 100 µM.

Regarding `O=c1ccc2ccc(Oc3ccc(Nc4c5c(nc6cc(Cl)ccc46)CCCC5)cc3)cc2o1` [7-(4-((6-Chloro-1,2,3,4-tetrahydroacridin-9-yl)amino)phenoxy)-2H-chromen-2-one (8h)], the IC50 (on Acetylcholinesterase; in assay [1]) was more than 100 µM throughout.

Take `Cc1cc(=O)oc2cc(Oc3ccc(Nc4c5c(nc6cc(Cl)ccc46)CCCC5)cc3)ccc12` [7-(4-((6-Chloro-1,2,3,4-tetrahydroacridin-9-yl)amino)phenoxy)-4-methyl-2H-chromen-2-one (8k)]: the IC50 at Acetylcholinesterase is 18 µM; in assay [1], 31.2 µM.

Consider `O=c1ccc2ccc(Oc3ccc(Nc4c5c(nc6cc(Cl)ccc46)CCC5)cc3)cc2o1` [7-(4-((6-Chloro-2,3-dihydro-1H-cyclopenta[b]quinolin-9-yl)amino)phenoxy)-2H-chromen-2-one (8b)], for which the IC50 is more than 100 µM against Acetylcholinesterase and 11.6 µM in assay [1].

Turning to `Cc1cc(=O)oc2cc(Oc3ccc(Nc4c5c(nc6cc(Cl)ccc46)CCC5)cc3)ccc12` [7-(4-((6-Chloro-2,3-dihydro-1H-cyclopenta[b]quinolin-9-yl)amino)phenoxy)-4-methyl-2H-chromen-2-one (8e)], the IC50 against Acetylcholinesterase was 16.2 µM; in assay [1], more than 100 µM; in assay [2] it was 7.99 µM.

For the compound `O=c1ccc2ccc(Oc3ccc(Nc4c5c(nc6ccccc46)CCCCC5)cc3)cc2o1` [7-(4-((7,8,9,10-Tetrahydro-6H-cyclohepta[b]quinolin-11-yl)amino)phenoxy)-2H-chromen-2-one (8m)], the IC50 (against Acetylcholinesterase; in assay [1]) was more than 100 µM throughout.

With `O=c1ccc2ccc(Oc3ccc(Nc4c5c(nc6ccc(Cl)cc46)CCCC5)cc3)cc2o1` [7-(4-((7-Chloro-1,2,3,4-tetrahydroacridin-9-yl)amino)phenoxy)-2H-chromen-2-one (8i)], the IC50 (against Acetylcholinesterase; in assay [1]) was more than 100 µM in each case.

As to `Cc1cc(=O)oc2cc(Oc3ccc(Nc4c5c(nc6ccc(Cl)cc46)CCCC5)cc3)ccc12` [7-(4-((7-Chloro-1,2,3,4-tetrahydroacridin-9-yl)amino)phenoxy)-4-methyl-2H-chromen-2-one (8l)], the IC50 is 30.8 µM at Acetylcholinesterase and more than 100 µM in assay [1].

Turning to `O=c1ccc2ccc(Oc3ccc(Nc4c5c(nc6ccc(Cl)cc46)CCC5)cc3)cc2o1` [7-(4-((7-Chloro-2,3-dihydro-1H-cyclopenta[b]quinolin-9-yl)amino)phenoxy)-2H-chromen-2-one (8c)], the IC50 at Acetylcholinesterase is 38.5 µM; in assay [1], more than 100 µM.

Consider `Cc1cc(=O)oc2cc(Oc3ccc(Nc4c5c(nc6ccc(Cl)cc46)CCC5)cc3)ccc12` [7-(4-((7-Chloro-2,3-dihydro-1H-cyclopenta[b]quinolin-9-yl)amino)phenoxy)-4-methyl-2H-chromen-2-one (8f)], for which the IC50 on Acetylcholinesterase is 36.7 µM; in assay [1], more than 100 µM.

Source of the values: BindingDB's records for doi:10.1016/j.bioorg.2016.06.001 (Tehran University of Medical Sciences, 2016).
